Measured values published in ChEMBL document CHEMBL5543057, “Hydrophobic tag-based protein degradation: Development, opportunity and challenge” (Eur J Med Chem, 2023).
Blank lines part the entries; values can stand above or below the compound they belong to.

Legend:
[1] = test system: HeLa; assay: Antiproliferative activity against human HeLa cells assessed as reduction in cell viability incubated for 24 hrs by MTT assay; format: functional, cell-based
[2] = biological target: Serine/threonine-protein kinase PLK1 (Homo sapiens, UniProt P53350); assay: Inhibition of PLK1 (unknown origin) (37 to 345 residues) expressed in Escherichia coli BL21 (DE3) incubated for 18 hrs by fluorescence polarization assay
[3] = test system: NCI/ADR-RES; assay: Antiproliferative activity against human MCF7ADR cells assessed as reduction in cell growth measured after 48 hrs by MTT assay; format: functional, cell-based
[4] = Oral bioavailability in Sprague-Dawley rat at 1 mg/kg by LC/MS/MS analysis; format: ADME, organism-based; details: in vivo
[5] = Clearance in Sprague-Dawley rat at 1 mg/kg, iv measured for 24 hrs by LC-MS/MS analysis; format: ADME, organism-based; details: in vivo
[6] = Half life in Sprague-Dawley rat at 1 mg/kg, iv measured for 24 hrs by LC-MS/MS analysis; format: ADME, organism-based; details: in vivo
[7] = Half life in Sprague-Dawley rat at 50 mg/kg, ip measured for 24 hrs by LC-MS/MS analysis; format: ADME, organism-based; details: in vivo
[8] = Clearance in Sprague-Dawley rat at 50 mg/kg, ip measured after 24 hrs by LC-MS/MS analysis; format: ADME, organism-based; details: in vivo
[9] = biological target: Protein cereblon/Bromodomain-containing protein 4 (Homo sapiens, UniProt O60885+Q96SW2); assay: PROTAC activity at CRBN/BRD4 in human MV4-11 cells assessed as induction of degradation of BRD4 measured after 24 hrs by Western blot analysis; format: cell-based
Chain of Protein cereblon/Bromodomain-containing protein 4 (Q96SW2 whole entry, looked up, other chains not shown): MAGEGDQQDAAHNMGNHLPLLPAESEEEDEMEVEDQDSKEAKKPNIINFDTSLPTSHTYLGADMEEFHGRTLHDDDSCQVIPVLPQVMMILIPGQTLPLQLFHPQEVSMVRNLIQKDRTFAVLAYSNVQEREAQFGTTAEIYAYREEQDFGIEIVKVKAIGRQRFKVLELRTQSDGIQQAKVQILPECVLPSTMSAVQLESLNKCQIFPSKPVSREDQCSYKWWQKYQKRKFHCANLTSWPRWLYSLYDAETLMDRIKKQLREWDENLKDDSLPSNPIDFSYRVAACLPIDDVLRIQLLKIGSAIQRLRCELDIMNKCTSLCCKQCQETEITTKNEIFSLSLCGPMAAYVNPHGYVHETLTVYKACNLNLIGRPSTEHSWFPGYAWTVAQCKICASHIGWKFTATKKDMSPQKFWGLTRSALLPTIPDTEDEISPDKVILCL

Chain of Serine/threonine-protein kinase PLK1 (P53350 whole entry, the tested form may be a part): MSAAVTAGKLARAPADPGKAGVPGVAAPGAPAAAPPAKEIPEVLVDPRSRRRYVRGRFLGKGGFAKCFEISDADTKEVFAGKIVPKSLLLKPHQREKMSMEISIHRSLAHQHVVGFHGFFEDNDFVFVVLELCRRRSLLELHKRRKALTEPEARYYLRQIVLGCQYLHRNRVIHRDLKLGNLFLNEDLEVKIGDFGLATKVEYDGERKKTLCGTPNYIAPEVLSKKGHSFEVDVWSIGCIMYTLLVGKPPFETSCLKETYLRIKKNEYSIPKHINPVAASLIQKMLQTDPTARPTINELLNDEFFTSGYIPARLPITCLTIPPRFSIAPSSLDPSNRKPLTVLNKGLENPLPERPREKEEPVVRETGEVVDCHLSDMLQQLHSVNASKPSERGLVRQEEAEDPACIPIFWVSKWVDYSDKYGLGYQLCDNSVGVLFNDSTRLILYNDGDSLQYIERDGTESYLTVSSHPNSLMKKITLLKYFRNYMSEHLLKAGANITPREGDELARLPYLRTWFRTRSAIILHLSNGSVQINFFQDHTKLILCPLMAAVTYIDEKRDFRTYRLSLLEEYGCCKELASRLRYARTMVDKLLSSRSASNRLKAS

IC50 [1]: 10.5 µM
IC50 [2]: 1.4 µM
SMILES: CC1=C/C(=N/OC(=O)c2ccccc2C)C(C)=CC1=O

SMILES: CC1=CC(=O)[C@H]2/C(C=O)=C\C[C@H]3[C@@H]([C@@H](C)/C=C\C=C/C(=O)OCCOCCOCCOC(=O)CC45CC6CC(CC(C6)C4)C5)CC[C@]3(C)C[C@H]12
IC50 [3]: 0.48 µM

SMILES: CC1=CC(=O)[C@H]2/C(C=O)=C\C[C@H]3[C@@H]([C@@H](C)/C=C\C=C/C(=O)OCCCOC(=O)CC45CC6CC(CC(C6)C4)C5)CC[C@]3(C)C[C@H]12
IC50 [3]: 0.96 µM

SMILES: CC1=CC(=O)[C@H]2/C(C=O)=C\C[C@H]3[C@@H]([C@@H](C)/C=C\C=C/C(=O)OCCOCCOCCOCCOC(=O)CC45CC6CC(CC(C6)C4)C5)CC[C@]3(C)C[C@H]12
IC50 [3]: 2.03 µM

SMILES: CC1=CC(=O)[C@H]2/C(C=O)=C\C[C@H]3[C@@H]([C@@H](C)/C=C\C=C/C(=O)OCCCCCCCCOC(=O)CC45CC6CC(CC(C6)C4)C5)CC[C@]3(C)C[C@H]12
IC50 [3]: 1.49 µM

SMILES: CC1=CC(=O)[C@H]2/C(C=O)=C\C[C@H]3[C@@H]([C@@H](C)/C=C\C=C/C(=O)OCCOCCOC(=O)CC45CC6CC(CC(C6)C4)C5)CC[C@]3(C)C[C@H]12
IC50 [3]: 0.87 µM

bioavailability [4]: 8.6%
clearance [5]: 8.26 L/h/kg
half-life [6]: 25.2 min
half-life [7]: 31.7 min
CL/F [8]: 2.48 L/h/kg
SMILES: CCc1cc2c(cc1N1CCN(CCCCC(=O)NCC3CC4C=CC3C4)CC1)C(C)(C)c1[nH]c3cc(C#N)ccc3c1C2=O (stereo unspecified)

DC50 [9]: 10 µM
SMILES: CC(C)C[C@H](NC(=O)[C@H](C)NC(=O)[C@H](C)NC(=O)[C@H](C)NC(=O)[C@H](C)NC(=O)[C@H](CC(C)C)NC(=O)[C@@H](N)CCCNC(=N)N)C(=O)N[C@@H](CC(C)C)C(=O)N1CCC[C@H]1C(=O)N1CCC[C@H]1C(=O)N[C@H](C(=O)N[C@@H](CCC(=O)O)C(=O)N[C@@H](CCC(N)=O)C(=O)N[C@@H](CC(=O)O)C(=O)N[C@@H](CC(C)C)C(=O)N[C@@]1(C)CCC/C=C\CCC[C@@](C)(C(=O)N[C@@H](Cc2ccc(O)cc2)C(N)=O)NC(=O)[C@H](CC2CCCCC2)NC(=O)[C@H](CC(C)C)NC(=O)[C@H](CCCCN)NC1=O)[C@@H](C)O

IC50 [2]: 10.5 µM
SMILES: CC1=C/C(=N\OC(=O)c2ccc(CNC(=O)CCc3cn(CCCCCCOCCOCCNC(=O)CC4C5CC6CC(C5)CC4C6)nn3)cc2C)C(C)=CC1=O (stereo unspecified)

IC50 [2]: 48.2 µM
SMILES: CC1=C/C(=N\OC(=O)c2ccc(CNC(=O)CCc3cn(CCCCCCOCCOCCNC(=O)[C@H](C)CCC4C5CC6CC(C5)CC4C6)nn3)cc2C)C(C)=CC1=O (stereo partly specified)

DC50 [9]: 5 µM
SMILES: CC(C)C[C@H](NC(=O)CCOCCOCCOCCNC(=O)CNC1C2CC3CC(C2)CC1C3)C(=O)N[C@@H](CC(C)C)C(=O)N1CCC[C@H]1C(=O)N1CCC[C@H]1C(=O)N[C@H](C(=O)N[C@@H](CCC(=O)O)C(=O)N[C@@H](CCC(N)=O)C(=O)N[C@@H](CC(=O)O)C(=O)N[C@@H](CC(C)C)C(=O)N[C@@]1(C)CCC/C=C\CCC[C@@](C)(C(=O)N[C@@H](Cc2ccc(O)cc2)C(N)=O)NC(=O)[C@H](CC2CCCCC2)NC(=O)[C@H](CC(C)C)NC(=O)[C@H](CCCCN)NC1=O)[C@@H](C)O (stereo partly specified)
